Data: patent publication US4550115A, “Certain piperidino-lower-alkylene esters of 3-methylflavone-8-carboxylates possessing smooth muscle relaxant activity” (Recordati S.A., Chemical & Pharmaceutical Company, priority 1981, dated 1985)
Where a name gives a salt, the structure may show the parent alone. Read-outs that look alike come from different tables or passages of the source.

Tests used:
[1] = system: guinea pig isolated ureter; assay: Antispastic activity, spontaneous mobility of guinea pig isolated ureter (Trendelemburg method); details: Cavia porcellus
Procedure: The smooth muscle relaxant activity of the novel flavone derivatives was also measured through the spontaneous mobility of guinea pig isolated ureter. […] The ureter was allowed to stabilize in Tyrode solution with the upper part closed and the inner part connected to a pressure transducer. The test drugs were given cumulatively and the spontaneous circular and longitudinal contractions of the ureter were measured.

guinea pig ileum = assay: Antispastic or antispasmodic activity, BaCl2-induced contraction of guinea pig ileum (Magnus method); details: Cavia porcellus, 1 min, read-out: ED50 (antispastic or antispasmodic activity)
Procedure: The antispastic or antispasmodic activity was evaluated following the Magnus method [Pflugers Arch. […] Two equal contractions were induced by BaCl2 at a concentration ranging between 1 and 4.10^-4 M in guinea pig ileum maintained at 30° C. in Ringer solution and aerated with Carbogen.
The test drug was administered and, one minute later, BaCl2 in the same concentration. The inhibition of the contraction was observed.

in vivo = details: mouse
[2] = system: guinea pig depolarized taenia coli; assay: Calcium blocking activity on guinea pig depolarized taenia coli (Ferrari and Carpenedo); details: Cavia porcellus; cumulative CaCl2, K+-depolarized guinea pig taenia coli; read-out: Calcium blocking activity ED50
Procedure: The calcium blocking activity was tested on guinea pig depolarized taenia coli, according to the method described by Ferrari and Carpenedo [Arch. Int. Pharmacodyn., 174, 223 (1968)]. The guinea pig taenia coli was allowed to stabilize in Tyrode solution without Ca^++. It was then washed with K2 SO4 Ringer solution and afterwards perfused with KNO3 Ringer. Cumulative concentrations of CaCl2 were added to the organ bath in absence or presence of the test drug.

physchem = details: phosphate buffer, pH 7.4
Procedure: Such stability was measured at 37° C. in simulated gastric fluid (U.S. Pat. No. XX, 1105, 1980) and in phosphate buffer (pH 7.4) by spectrodensitometric determination of 3-methylflavone-8-carboxylic acid resulting from eventual hydrolysis.

[3] = circular contractions, cumulative dosing, read-out: Antispastic Activity Isolated Ureter ED50, circular contractions
[4] = longitudinal contractions, cumulative dosing, read-out: Antispastic Activity Isolated Ureter ED50, longitudinal contractions
[5] = guinea pig ileum, 30° C., BaCl2 1 to 4.10^-4 M, drug one minute before BaCl2, inhibition of contraction

Structure (SMILES) | IC50 [1, 3] [µM] | IC50 [1, 4] [µM] | IC50 (guinea pig ileum; [5]) [µM] | LD50 (in vivo; po) [µmol/kg] | IC50 [2] [µM] | remaining at 1 h (physchem) [%] | remaining at 3 h (physchem) [%] | LD50 (in vivo; ip) [µmol/kg] | IC50 ([1]; read-out: Antispastic Activity Isolated Ureter ED50, circular contractions) [µM] | IC50 ([1]; read-out: Antispastic Activity Isolated Ureter ED50, longitudinal contractions) [µM] | IC50 (guinea pig ileum) [µM]
Cc1c(-c2ccccc2)oc2c(C(=O)O[C@@H]3CCCC[C@@H]3N3CCCCC3)cccc2c1=O.Cl (relative stereo) [Active compound 8, cis-2-piperidino-cyclohexyl 3-methyl-flavone-8-carboxylate hydrochloride] | 5 | 2.5 | 2.7 | 2160 | 7.3 | 85 | 70 |  |  |  | 
Cc1c(-c2ccccc2)oc2c(C(=O)O[C@@H]3CCCC[C@H]3N3CCCCC3)cccc2c1=O (relative stereo) [Active compound 14] |  |  | 7.7 |  |  |  |  |  |  |  | 
Cc1c(-c2ccccc2)oc2c(C(=O)OCCCN3CCCCC3C)cccc2c1=O (centres unmarked) [Active compound 1, 3-(2-methyl-N-piperidino)-propyl 3-methylflavone-8-carboxylate hydrochloride] | 8.5 | 6.9 | 4 | 1860 | 24 | 100 | 100 | 560 |  |  | 
Cc1c(-c2ccccc2)oc2c(C(=O)OC(C)CCN3CCCCC3)cccc2c1=O (centres unmarked) [Active compound 2, 1-methyl-3-(N-piperidino)propyl] |  |  | 6.2 | 690 | 16 | 100 | 100 | 160 |  |  | 
Cc1c(-c2ccccc2)oc2c(C(=O)OC(C)CN3CCCCC3)cccc2c1=O (centres unmarked) [Active compound 3, 1-methyl-piperidino-ethyl] |  |  | 9.7 | 850 | 19 | 40 | 30 | 500 |  |  | 
Cc1c(-c2ccccc2)oc2c(C(=O)OC(CN3CCCCC3)c3ccccc3)cccc2c1=O (centres unmarked) [Active compound 4, 1-phenyl-2-piperidino-ethyl] |  |  | 6.7 |  |  | 68 | 34 |  |  |  | 
Cc1c(-c2ccccc2)oc2c(C(=O)OC(C)(C)CN3CCCCC3)cccc2c1=O [Active compound 5, 1,1-dimethyl-2-(N-piperidino)ethyl-3-methylflavone-8-carboxylate] | 12 | 2.8 | 2.4 |  | 8.6 | 96 | 91 |  |  |  | 
Cc1c(-c2ccccc2)oc2c(C(=O)OC(C)(C)CN3CCCCC3C)cccc2c1=O (centres unmarked) [Active compound 6] | 5.3 | 2.5 | 3.4 |  | 7.5 | 100 | 100 |  |  |  | 
Cc1c(-c2ccccc2)oc2c(C(=O)OCC(O)CN3CCCCC3)cccc2c1=O (centres unmarked) [Active compound 7, 2-hydroxy-3-(N-piperidino)propyl 3-methylflavone-8-carboxylate] |  |  |  | 3100 |  | 44 | 25 | 580 |  |  | 
Cc1c(-c2ccccc2)oc2c(C(=O)OC3CCCCC3CN3CCCCC3)cccc2c1=O (centres unmarked) [Active compound 9, 2-piperidinomethyl cyclohexyl] |  |  | 4 | 1080 | 26 | 88 | 87 | 190 |  |  | 
Cc1c(-c2ccccc2)oc2c(C(=O)OC3CCN(C)CC3)cccc2c1=O [Active compound 10, 1-methyl-4-piperidinyl] |  |  |  | 850 |  | 100 | 100 | 150 |  |  | 
Cc1c(-c2ccccc2)oc2c(C(=O)OC3CCCN(C)C3)cccc2c1=O.Cl (centres unmarked) [Active compound 11, N-methyl-3-piperidyl 3-methylflavone-8-carboxylate hydrochloride] |  |  |  | 770 |  | 100 | 100 | 360 |  |  | 
Cc1c(-c2ccccc2)oc2c(C(=O)OC3CC4CCC(C3)N4C)cccc2c1=O (centres unmarked) [Active compound 12, 3-tropinyl-3-methylflavone-8-carboxylate] |  |  |  | 950 |  | 100 | 100 | 420 | 20 | 9 | 4.3
Cc1c(-c2ccccc2)oc2c(C(=O)OCCN3CCCCC3)cccc2c1=O [FLAVOXATE, 2-(N-piperidino)ethyl 3-methylflavone-8-carboxylate hydrochloride, reference compound] |  |  | 5.6 | 1890 | 25 | 22 | 10 | 900 |  |  | 
